The values below come from ChEMBL document CHEMBL5576099, “Isolation, Characterization, and Antiproliferative Activity of Terpenoids from the Tropical Plant Turraea delphinensis” (J Nat Prod, 2024).

Format in all cases: functional, cell-based
In one assay the test system is A549. The experiment in a line: Antiproliferative activity against human A549 cells assessed as reduction in cell viability by SRB assay. For orientation: In SRB staining, fixed cells bind dye roughly in proportion to their protein.
Another assay concerns MCF7. Put plainly: Antiproliferative activity against human MCF7 cells assessed as reduction in cell viability by SRB assay.
The next assay relates to MDA-MB-231. Put plainly: Antiproliferative activity against human MDA-MB-231 cells assessed as reduction in cell viability by SRB assay.
Assay [1] can be described thus: Antiproliferative activity against human KB-VIN cells over expressing p-gp assessed as reduction in cell viability by SRB assay. The following applies: KBVIN.
The test system of a further assay is KB. The experiment in a line: Antiproliferative activity against human KB cells assessed as reduction in cell viability by SRB assay.

Usually IC50 stands for the concentration that inhibits the measured activity by half. Turning to `C[C@H](C/C=C/C(C)(C)O)[C@H]1CC[C@@]2(C)[C@@H]3CC[C@H]4C(C)(C)C(=O)CC[C@@]45C[C@@]35CC[C@]12C`, the IC50 was 9.6 µM in the assay on A549; greater than 10 µM in the assay on MCF7; greater than 10 µM with MDA-MB-231; greater than 10 µM in assay [1]; greater than 10 µM in the assay on KB.

On to `C[C@@H](C[C@@H](O)[C@H](O)C(C)(C)O)[C@@H]1CC[C@]2(C)C3=CC[C@H]4C(C)(C)[C@@H](O)CC[C@]4(C)[C@H]3CC[C@@]12C`, for which the IC50 in the assay on A549 was 8 µM; with MCF7 it was greater than 10 µM; in the assay with MDA-MB-231, greater than 10 µM; in assay [1], 9.7 µM; in the assay on KB, 8.2 µM.

Consider `CC(C)=C[C@@H]1C[C@H]([C@H]2CC[C@@]3(C)[C@@H]4CC[C@H]5C(C)(C)C(=O)CC[C@@]56C[C@@]46CC[C@]23C)CO1`, for which the IC50 (with A549; in the assay on MCF7; in the assay on MDA-MB-231; in assay [1]; in the assay on KB) was greater than 10 µM each time.

On to `C[C@@H]([C@H](O)/C=C/C(C)(C)O)[C@@H]1CC[C@]2(C)C3=CC[C@H]4C(C)(C)C(=O)CC[C@]4(C)[C@H]3CC[C@@]12C`, for which the IC50 in the assay on A549 was greater than 10 µM; in the assay with MCF7 it was greater than 10 µM; in the assay with MDA-MB-231, greater than 10 µM; in assay [1], 9.5 µM; in the assay on KB, 9 µM.

Consider `C=C[C@]1(C)C=C2C(=O)CC3C(C)(C)CCC[C@]3(C)C2CC1` (stereo partly drawn), for which the IC50 (in the assay on A549; in the assay with MCF7; in the assay with MDA-MB-231; in assay [1]; with KB) was greater than 10 µM throughout.

Regarding `CC(C)=CC(O)C[C@H](C)[C@@H]1CC[C@]2(C)C3=CCC4C(C)(C)[C@@H](O)CC[C@]4(C)[C@H]3CC[C@@]12C` (stereo partly drawn), the IC50 (with A549; in the assay with MCF7; in the assay with MDA-MB-231; in assay [1]; in the assay with KB) was greater than 10 µM throughout.

As for `CC1(C)OCC([C@@H]2CC[C@]3(C)C4=CC[C@H]5C(C)(C)C(=O)CC[C@]5(C)[C@H]4CC[C@@]23C)C[C@@H](O)[C@@H]1O` (stereo partly drawn), the IC50 with A549 was 8.3 µM; with MCF7, greater than 10 µM; in the assay on MDA-MB-231, greater than 10 µM; in assay [1] it was 7.9 µM; in the assay with KB, 9.5 µM.

`C=C[C@]1(C)C=C2C(CC1)[C@@]1(C)CCCC(C)(C)C1C[C@@H]2O` (stereo partly drawn): the IC50 (with A549; with MCF7; in the assay with MDA-MB-231; in assay [1]; with KB) was greater than 10 µM each time.

In the case of `CC1(C)C(=O)CC[C@@]2(C)C1CC=C1[C@@H]2CC[C@@]2(C)[C@H](C3CO[C@@H](C(C)(C)O)[C@H](O)C3)CC[C@]12C` (stereo partly drawn), the IC50 (in the assay on A549; in the assay with MCF7; in the assay with MDA-MB-231; in assay [1]; with KB) was greater than 10 µM throughout.

Turning to `CC(=O)O[C@H]1[C@@H](OC(C)=O)[C@@]2(C)C3=CC[C@@H]([C@H]4COC(=O)C4)[C@]3(C)CC[C@@H]2[C@@]2(C)[C@@H](O)C[C@@H](O)C(C)(C)[C@H]12`, the IC50 (with A549; in the assay with MCF7; with MDA-MB-231; in assay [1]; in the assay with KB) was greater than 10 µM in each case.

For `CC(C)=CC(=O)C[C@@H](C)[C@H]1CC[C@@]2(C)[C@@H]3CC[C@H]4C(C)(C)C(=O)CC[C@@]45C[C@@]35CC[C@]12C`, the IC50 (in the assay on A549; with MCF7; with MDA-MB-231; in assay [1]; in the assay with KB) was greater than 10 µM each time.

In the case of `C[C@H](C/C=C/C(C)(C)O)[C@H]1CC[C@@]2(C)[C@@H]3CC[C@H]4C(C)(C)[C@H](O)CC[C@@]45C[C@@]35CC[C@]12C`, the IC50 was greater than 10 µM in the assay on A549; greater than 10 µM with MCF7; 9.3 µM in the assay on MDA-MB-231; greater than 10 µM in assay [1]; greater than 10 µM with KB.

Regarding `C=C1CC[C@@H]2[C@H]([C@H]3[C@@H]1CC[C@]3(C)O)[C@@]2(C)CCC=C(C)C`, the IC50 (with A549; in the assay with MCF7; with MDA-MB-231; in assay [1]; in the assay on KB) was greater than 10 µM each time.

Consider `CC(C)CC(=O)[C@@H](O)[C@H](C)[C@@H]1CC[C@]2(C)C3=CC[C@H]4C(C)(C)C(=O)CC[C@]4(C)[C@H]3CC[C@@]12C`, for which the IC50 (in the assay with A549; in the assay with MCF7; with MDA-MB-231; in assay [1]; in the assay on KB) was greater than 10 µM in each case.

`CC(C)=CC(=O)C[C@@H](C)[C@H]1CC[C@@]2(C)[C@@H]3CC[C@H]4C(C)(C)[C@@H](O)CC[C@@]45C[C@@]35CC[C@]12C`: the IC50 (with A549; in the assay with MCF7; with MDA-MB-231; in assay [1]; with KB) was greater than 10 µM in each case.

On to `CC(C)=CCC[C@@H](CO)[C@H]1CC[C@@]2(C)[C@@H]3CC[C@H]4C(C)(C)C(=O)CC[C@@]45C[C@@]35CC[C@]12C`, for which the IC50 in the assay on A549 was 6.5 µM; with MCF7 it was greater than 10 µM; in the assay with MDA-MB-231, 7.4 µM; in assay [1], 6.2 µM; in the assay with KB, 3.9 µM.

As for `CC(C)=CCC[C@]1(C)[C@H]2[C@@H]3[C@H](C)CC[C@H]3[C@](C)(O)CC[C@H]21`, the IC50 is 8.9 µM with A549; greater than 10 µM in the assay on MCF7; greater than 10 µM in the assay on MDA-MB-231; greater than 10 µM in assay [1]; 8.9 µM with KB.

As for `C[C@@H](C[C@@H](O)[C@@H]1OC1(C)C)[C@@H]1CC[C@]2(C)C3=CC[C@H]4C(C)(C)C(=O)CC[C@]4(C)[C@H]3CC[C@@]12C`, the IC50 stood at 5.9 µM with A549; 6.9 µM with MCF7; 7.1 µM with MDA-MB-231; 6.1 µM in assay [1]; 4.6 µM in the assay with KB.

As for `C[C@@H]([C@@H]1O[C@@H]1[C@@H]1OC1(C)C)[C@@H]1CC[C@]2(C)C3=CC[C@H]4C(C)(C)C(=O)CC[C@]4(C)[C@H]3CC[C@@]12C`, the IC50 is 5.4 µM in the assay with A549; greater than 10 µM with MCF7; greater than 10 µM with MDA-MB-231; 8.3 µM in assay [1]; 8.1 µM in the assay with KB.

Regarding `CC(C)=C[C@H]1C[C@H]([C@H]2CC[C@@]3(C)[C@@H]4CC[C@H]5C(C)(C)C(=O)CC[C@@]56C[C@@]46CC[C@]23C)CO1`, the half-maximal inhibitory concentration (IC50) (in the assay on A549; with MCF7; with MDA-MB-231; in assay [1]; in the assay with KB) was greater than 10 µM in each case.

Regarding `CC(C)=C[C@H](O)C[C@@H](CO)[C@H]1CC[C@@]2(C)[C@@H]3CC[C@H]4C(C)(C)C(=O)CC[C@@]45C[C@@]35CC[C@]12C` (mixture of isomers), the IC50 is greater than 10 µM in the assay on A549; greater than 10 µM in the assay on MCF7; greater than 10 µM with MDA-MB-231; 9.9 µM in assay [1]; greater than 10 µM in the assay on KB.

Turning to `C[C@H]([C@H]1OC(C)(C)[C@@H](O)[C@@H]1O)[C@@H]1CC[C@]2(C)C3=CC[C@H]4C(C)(C)C(=O)CC[C@]4(C)[C@H]3CC[C@@]12C` (relative stereo), the IC50 (with A549; with MCF7; in the assay on MDA-MB-231; in assay [1]; in the assay on KB) was greater than 10 µM in each case.

Take `CC(C)(O)[C@@H]1CC[C@H]([C@H]2CC[C@@]3(C)[C@@H]4CC[C@H]5C(C)(C)C(=O)CC[C@@]56C[C@@]46CC[C@]23C)CO1` (relative stereo): the IC50 in the assay on A549 is 9.1 µM; in the assay with MCF7, greater than 10 µM; in the assay on MDA-MB-231, greater than 10 µM; in assay [1] it was greater than 10 µM; in the assay on KB it was greater than 10 µM.

In the case of `C[C@H](C[C@@H](O)[C@@H]1OC1(C)C)[C@H]1CC[C@@]2(C)[C@@H]3CC[C@H]4C(C)(C)C(=O)CC[C@@]45C[C@@]35CC[C@]12C` (relative stereo), the IC50 (with A549; with MCF7; in the assay with MDA-MB-231; in assay [1]; in the assay with KB) was greater than 10 µM in each case.

As for `C[C@@H](C[C@@H](O)[C@@H]1OC1(C)C)[C@@H]1CC[C@]2(C)C3=CC[C@H]4C(C)(C)[C@@H](O)CC[C@]4(C)[C@H]3CC[C@@]12C` [DIHYDRONILOTICIN], the IC50 in the assay on A549 is 5.2 µM; in the assay on MCF7, 7.2 µM; in the assay with MDA-MB-231, 4.7 µM; in assay [1], 5.1 µM; in the assay on KB, 4.8 µM.

For the compound `CC(=O)O[C@H]1C(=O)[C@@]2(C)[C@H]([C@H](OC(=O)c3ccccc3)[C@]3(O)C[C@H](OC(=O)[C@H](O)[C@@H](NC(=O)c4ccccc4)c4ccccc4)C(C)=C1C3(C)C)[C@]1(OC(C)=O)CO[C@@H]1C[C@@H]2O` [PACLITAXEL], the IC50 in the assay with MDA-MB-231 stood at 0.0084 µM; in assay [1], 2.21 µM; with KB, 0.0071 µM.
